Measurements taken from patent US10098347B2, “Methods of improving growth and stress tolerance in plants” (Valent BioSciences LLC, priority 2016, dated 2018).

Experiments:
Format in all cases: in vivo
[1] = system: Italian large leaf basil (Ocimum basilicum) seedlings; experiment: Chilling tolerance assay in basil seedlings (24-well plates)
Description: To determine the capacity of glycine betaine (“GB”) to confer thermo-tolerance, both singly and in combination with (S)-abscisic acid (“(S)-ABA”), chilling (i.e. cold) tolerance assays were performed using Italian large leaf basil (Ocimum basilicum) seedlings. Basil seeds were sterilized in an ethanol solution containing 0.16% Maxim® XL fungicide (Maxim is a registered trademark of and available from Syngenta Corporation). The sterilized seeds were germinated on ½×Murashige and Skoog Basal Salt Media, supplemented with 1× Gamborg's Vitamins and 0.6% Phytagar, and dispensed into 24-well plates. […]
After five days, concentrated solutions of GB and/or (S)-ABA were added as an overlay in 0.4% Phytagar. […] The seedlings were subjected to chilling stress for six days, after which time they were transferred back to the ambient temperature chamber, and scored after a six-day recovery period.
Individual wells contained indicated amounts of GB and/or (S)-ABA. […] GB was evaluated singly at concentrations of 0, 3,000, 10,000, 30,000, and 100,000 milligrams per liter (“mg/l”.) To test whether there was a synergistic interaction between GB and (S)-ABA, glycine betaine was added to the media at concentrations of 0, 1,000, 3,000, 10,000, and 30,000 mg/l, whereas (S)-ABA was held at a concentration of 3 mg/l. […]

Italian sweet basil [2] = experiment: Chilling damage of Italian sweet basil following spray treatment (Example 3)
Description: (§1) A laboratory study was conducted at Long Grove, Ill. Italian sweet basil seeds were sown in Pro-Mix® BX potting soil and plants were grown at room temperature under cool-white fluorescent lights under a 16:8 (light:dark) photoperiod. At 22 days post-sowing, plants were subjected to sprays with a portable Preval® paint sprayer. At 48 hours post-spraying, plants were moved to a CONVIRON® growth chamber and subjected to a temperature of 4° C. for 72 hours under a 12:12 (light:dark) photoperiod. Upon removal from the cold chamber, plants were returned to the laboratory and placed again under the cool white fluorescent lamps until they were visually scored for chilling damage at 24 hours and 72 hours post-chilling. Each treatment was replicated seven times.

Corn = experiment: Stomatal conductance of corn following spray; settings: for % of Control Conductance 3 days: 3 days post-spray; for % of Control Conductance 4 days: 4 days post-spray
Description: A greenhouse study was conducted at Long Grove, Ill. Seeds of a commercial hybrid variety were sown in Pro-Mix® BX in three-liter pots. Greenhouses were kept at 25±3° C. under a 16:8 hour (light:dark) photoperiod, with illumination at canopy level of ˜250 μmoles m-2 s-1. Corn was typically fertigated with Peters 21-5-20+ micronutrients, calcium ammonium nitrate and magnesium sulfate. Typical growth rates for corn under these conditions ranged from 4 to 5 centimeters per day.
In this study, spray applications were made to corn at stage V4. These applications were made in a track sprayer outfitted with a 4001E Teejet® nozzle (Teejet is available from and a registered trademark of Spraying Systems Co., Glendale Heights, Ill., USA) and applied at 40 pounds per square inch and at 30 gallons/acre of spray solution. Following spray applications, plants were returned to the greenhouse.
At 3 and 4-days post spray application, stomatal conductance of the 4th true leaf was measured using a Licor Model 6400 XT photosynthesis meter (Licor, Lincoln, Neb.) used according to the manufacturer's directions. For ease of analysis, stomatal conductance values are expressed as a percent of control in Table 5 below.

Italian sweet basil [3] = experiment: Chilling damage of Italian sweet basil following spray treatment (Example 4)
Description: as §1, with “the cool-white” for “the cool white”, “and 120” for “and 72”

[4] = system: Cucumber (Cucumis sativa var. Straight Eight); experiment: Post-chilling damage in cucumber following spray treatment
Description: A laboratory study was conducted at Long Grove, Ill. Cucumber (Cucumis sativa var. Straight Eight) seeds were sown in Pro-Mix® BX potting soil (Pro-Mix is a registered trademark of and available from Premier Horticulture Ltd.) and plants were grown in a CONVIRON® growth chamber at 25° C. under a 16:8 (light:dark) photoperiod. At 15 days post-sowing, plants were subjected to sprays with a portable Preval® paint sprayer. All spray solutions were made up in deionized water and a non-ionic surfactant was added to all spray solutions at 0.05% (v/v). At 48 hours post-spraying, plants were moved to a CONVIRON® growth chamber and subjected to a temperature of 4° C. for 48 hours under a 12:12 (light:dark) photoperiod. Upon removal from the cold chamber, plants were returned to a CONVIRON® growth chamber set at 25° C. under a 16:8 (light:dark) photoperiod. The plants were visually scored for chilling damage at 72 hours post-chilling. Each treatment was replicated seven times. […] Using the following formula, Applicant was able to determine that the response to the GB:(S)-ABA ratio was synergistic, in which a synergy factor is calculated by the […]: % Cexp=A+B−(AB/100), where % Cexp is the expected efficacy and “in which A and B are the increase in growth (or resistance to stress) levels given by the single [plant growth regulators]. If the ratio between the experimentally observed efficacy of the mixture Cobs and the expected efficacy of the mixture is greater than 1, synergistic interactions are present in the mixture” (Gisi, Synergistic Interaction of Fungicides in Mixtures, The American Phytopathological Society, 86:11, 1273-1279, 1996). To be conservative Applicant has set the minimum synergy factor to 1.1 throughout the Examples. Applicant determined synergy to be present at the following ratios of GB:(S)-ABA: 1:1 (synergy factor 3.74); 3.3:1 (synergy factor 2.68) and 10:1 (synergy factor 1.24).

[5] = single agent spray 300 mg/l, 72 hours post-chilling (4° C. 48 h)
[6] = single agent spray 300 mg/l, 4° C. 72 h

`C[N+](C)(C)CC(=O)[O-]` [GB, Glycine betaine] was tested, and the “Protection against chilling injury” value ([1]; 30,000 mg/l GB alone) was “equivalent protection as ˜20 mg/l (S)-ABA”, the “% Leaf Area Damaged 24 h post-chilling” value (Italian sweet basil [2]; single agent spray 3,000 mg/l) was 67% and the “% Leaf Area Damaged 72 h post-chilling” value (Italian sweet basil [2]; single agent spray 3,000 mg/l) was 79%. The “% Leaf Area Damaged 24 h post-chilling” value (Italian sweet basil [2]; single agent spray 20,000 mg/l) was 45%, the “% Leaf Area Damaged 72 h post-chilling” value (Italian sweet basil [2]; single agent spray 20,000 mg/l) was 65% and the “% of Control Conductance 3 days” value (Corn; single agent spray 1,000 mg/l) was 86.2 % of Control. For the same molecule, the “% of Control Conductance 4 days” value (Corn; single agent spray 1,000 mg/l) was 97.9 % of Control, the “% Leaf Area Damaged 24 h post-chilling” value (Italian sweet basil [3]; single agent spray 10,000 mg/l) was 39.17% and the “% Leaf Area Damaged 120 h post-chilling” value (Italian sweet basil [3]; single agent spray 10,000 mg/l) was 56.67%. The “% Leaf Area Damaged 24 h post-chilling” value (Italian sweet basil [3]; single agent spray 30,000 mg/l) was 40.00%, the “% Leaf Area Damaged 120 h post-chilling” value (Italian sweet basil [3]; single agent spray 30,000 mg/l) was 50.00% and the “% Leaf Area Damaged” value [4, 5] was 84.3%. For the same molecule, the “% Leaf Area Damaged” value ([4]; single agent spray 1,000 mg/l, 72 hours post-chilling) was 82.1% and the “% Leaf Area Damaged” value ([4]; single agent spray 3,000 mg/l, 72 hours post-chilling) was 46.4%.
For `CC1=CC(=O)CC(C)(C)[C@@]1(O)/C=C/C(C)=C/C(=O)O` [(S)-ABA, (S)-abscisic acid], the Chilling injury ([1]; 20 ppm (S)-ABA alone (positive control)) was ““++” denotes little to no chilling injury; equivalent to 20 ppm (S)-ABA alone”, the “% Leaf Area Damaged 72 h post-chilling” value (Italian sweet basil [2]; single agent spray 300 mg/l) was 27% and the “% Leaf Area Damaged 24 h post-chilling” value (Italian sweet basil [2]; [6]) was 12%. For the same molecule, the “% Leaf Area Damaged 24 h post-chilling” value (Italian sweet basil [2]; single agent spray 1,000 mg/l) was 6%, the “% Leaf Area Damaged 72 h post-chilling” value (Italian sweet basil [2]; single agent spray 1,000 mg/l) was 14% and the “% of Control Conductance 4 days” value (Corn; single agent spray 100 mg/l) was 91.8 % of Control. The “% of Control Conductance 3 days” value (Corn; single agent spray 100 mg/l, corn stage V4, 4th true leaf) was 81.3 % of Control, the “% of Control Conductance 3 days” value (Corn; single agent spray 300 mg/l) was 73.6 % of Control and the “% of Control Conductance 4 days” value (Corn; single agent spray 300 mg/l) was 88.7 % of Control. The “% of Control Conductance 3 days” value (Corn; single agent spray 1,000 mg/l) was 76.5 % of Control, the “% of Control Conductance 4 days” value (Corn; single agent spray 1,000 mg/l) was 95.9 % of Control and the “% of Control Conductance 3 days” value (Corn; single agent spray 3,000 mg/l) was 55.3 % of Control. For the same molecule, the “% of Control Conductance 4 days” value (Corn; single agent spray 3,000 mg/l) was 77.5 % of Control, the “% Leaf Area Damaged 120 h post-chilling” value (Italian sweet basil [3]; single agent spray 300 mg/l) was 41.00% and the “% Leaf Area Damaged 24 h post-chilling” value (Italian sweet basil [3]; [6]) was 23.00%. The “% Leaf Area Damaged 24 h post-chilling” value (Italian sweet basil [3]; single agent spray 1,000 mg/l) was 11.67%, the “% Leaf Area Damaged 120 h post-chilling” value (Italian sweet basil [3]; single agent spray 1,000 mg/l) was 21.67% and the “% Leaf Area Damaged” value [4, 5] was 52.9%.
